{
  "source": "paper PMC11747586",
  "about": "“Synthesis and Investigation of Peptide–Drug Conjugates Comprising Camptothecin and a Human Protein‐Derived Cell‐Penetrating Peptide” (Chemical Biology & Drug Design, 2025)",
  "key": {"[1]": {"test": "Cytotoxicity (resazurin) against cultured HaCaT noncancerous cells", "method": "(§1) Cell death was measured using resazurin, with 0.1% (v/v) Triton X‐100 as a control for 100% cell death. Data points are expressed as mean ± SD for at least two biological replicates. Dose response curves were fitted using [inhibitor] versus response with variable slope, Graphpad Prism v10. […] RBC lysis was determined by measuring released hemoglobin, with 0.1% (v/v) Triton X‐100 as a control for 100% cell lysis. Melittin was included as a membranolytic control. Data points are expressed as mean ± SD for two technical replicates. Dose response curves were fitted using [inhibitor] versus response with variable slope, Graphpad Prism v10. […] CC50 values are expressed as mean (SEM). […]\n(§2) HaCaT cells were grown in DMEM medium and HT144 cells were grown in RPMI medium supplemented with 2 mM L-glutamine and 10 mM sodium pyruvate. Media were supplemented with 10% (v/v) fetal bovine serum, 100 units/mL of penicillin and […] of streptomycin. Flasks of cultured cells were maintained in a humidified incubator (37 °C, 5% CO2) and passaged every 2–3 days to maintain cultures between 20–90% confluence. Cell line identity was verified by comparing […]\n(§3) STR profiles of the cell lines against database entries from the DSMZ-German collection of microorganisms and cell cultures, GmBH https://celldive.dsmz.de/str/browse.\n(§4) Toxicity to the HT144 and HaCaT cell lines was tested following peptide treatment by measuring the metabolism of resazurin into fluorescent resorufin. The assays were performed with 5000 cells/well (96-well plate) in serum free media. Cells were incubated with serially diluted peptides, PDCs or drugs for 72 h or 24 h (37 °C, 5% CO2). PBS and 0.1% (v/v) Triton X-100 were included as controls for 0% and 100% toxicity. Resazurin was added at 0.02% (w/v) final concentration 2 h prior to the assay end point. Fluorescence (λex = 560 nm, λem = 585 nm) was measured using a Tecan infinite M1000Pro multiplate reader. Percentage cytotoxicity was calculated relative to 0% and 100% controls.\n(§5) Dose-response curves were fitted and CC50 values were determined using [inhibitor] vs response with four parameters with the top constrained to 100% (GraphPad Prism version 10.0.2). Data was collected as three biological replicates, with experiments conducted on different days.\n(§6) Red blood cell (RBC) lysis\n(§7) Human RBCs and serum were obtained from healthy volunteers via the Red Cross Lifeblood, Brisbane, Australia. RBCs were washed three times with PBS and stored in culture medium (RPMI"}, "[2]": {"test_system": "HaCaT (noncancerous) cells", "test": "Cytotoxicity (resazurin) against cultured HaCaT noncancerous cells", "conditions": "read-out: CC50 HaCaT; 72 h incubation, resazurin; mean (SEM)", "method": "as §1, §2, §3, §4, §5, §6, §7"}, "HT144 cells": {"test_system": "HT144 cells", "test": "Compound internalization/association with HT144 cells (TOF-MS of cell extracts)", "format": "cell-based", "conditions": "4 μM, 1 h", "method": "FIGURE 4 (A) Membrane permeability and cellular uptake of PDCs, scaffold peptides, and CPT. Compounds were added to PAMPA wells (4 μM) and incubated for 4 h. Supernatant from apical and basolateral sides of the membrane were collected and analyzed using LC–MS. The amount in the combined soluble fractions was compared to the starting amount to determine % recovery, and the apparent permeability (Papp) was calculated as before (Sevin et al. [2013]). Data is expressed as mean ± SD from a single experiment with three technical replicates. (B) Internalization/cell membrane association of PDCs 12–14 and PDIP with HT144 cells. […] The relative amount of internalized peptide or PDC was determined by integrating area under the curve (AUC) for the [M + 6H]^6+ m/z peak (for the intact mass) using time of flight–mass spectrometry (see Figure S2). […] Data is expressed as mean ± SD from a single experiment with three technical replicates for each treatment and control and was analyzed with ANOVA (Tukey multiple comparisons; **p < 0.01, *p < 0.05). […] Data is expressed as mean ± SD from a single experiment with three technical replicates for each treatment and was analyzed with ANOVA (Fisher multiple paired comparisons; **p < 0.01, *p < 0.05). […]\nThe area under the curve (AUC) for the [M+6H]6+ m/z peak for each compound was determined using Sciex […]"}},
  "note": "Positions of bridges follow the written chain, without caps; N, C: chain ends. Residues, ends and D or L forms follow the SMILES beside them.",
  "data": [
    {"smiles": "CC[C@H](C)[C@@H]1NC(=O)[C@H](CCCCN)NC(=O)[C@H](CCCCN)NC(=O)[C@H](Cc2ccc(O)cc2)NC(=O)[C@H](CC(C)C)NC(=O)[C@@H]2CCCN2C(=O)CNC(=O)CNC(=O)[C@@H](NC(=O)CN)CSSC[C@@H](C(=O)N[C@@H](CCC(=O)O)C(=O)N[C@@H](CO)C(N)=O)NC(=O)[C@H](CC(C)C)NC(=O)[C@H](CCCCN)NC(=O)[C@H](CCCCN)NC(=O)[C@H]([C@@H](C)CC)NC(=O)[C@H]([C@@H](C)CC)NC(=O)[C@H](CCCCN)NC(=O)[C@H](CCCCN)NC(=O)[C@H](Cc2ccc(O)cc2)NC(=O)[C@H](CC(C)C)NC(=O)[C@@H]2CCCN2C(=O)[C@H](C)NC(=O)CNC(=O)CNC(=O)[C@H](CO)NC(=O)CNC(=O)CNC(=O)[C@H](CO)NC(=O)[C@H](CCC(=O)O)NC(=O)[C@H](CC(C)C)NC(=O)[C@H](CC(C)C)NC(=O)[C@H](CCCCN)NC(=O)[C@H](CCCCN)NC(=O)[C@H]([C@@H](C)CC)NC1=O", "note": "[PDIP, reference compound] (H-GCGGPLYKKIIKKLLESGGSGGAPLYKKIIKKLCES-NH2; disulfide 2-34; N-terminus assumed)", "values": [
      {"measurement": "CC50", "setting": "[1]", "value": "> 32", "unit": "µM"},
      {"measurement": "CC50", "setting": "[2]", "value": "≥ 32", "unit": "µM"},
      {"measurement": "recovered intact conjugate/peptide (percentage of internalized compound)", "setting": "HT144 cells", "value": 9, "unit": "%"}
    ]}
  ]
}
